Holding throughout (assay): inhibition of tumour cell growth, NCI panel, 48 h
The test system of assay [1] is HCT-116.
The subject of assay [2] is HCT-15.
Assay [3] concerns HOP-62.
In assay [4] the test system is K562.
Assay [5] concerns LOX IMVI.
Assay [6] deals with M14.
Assay [7] concerns MOLT-4.
Assay [8] deals with Malme-3M.
Assay [9] has as its system OVCAR-3.
For assay [10], the system named is OVCAR-5.
Assay [11] concerns RPMI-8226.
Assay [12] relates to RXF 393.
Assay [13] concerns SK-MEL-2.
The subject of assay [14] is SK-OV-3.
The subject of assay [15] is SN12C.
In assay [16] the test system is SNB-19.
Assay [17] concerns SNB-75.
Assay [18] deals with U-251.
Assay [19] concerns NCI-H460.
The test system of assay [20] is HOP-92.

We go through eleven molecules from ChEMBL document CHEMBL1201862, “PubChem BioAssay data set” (2004).

SMILES strings stand for the structures.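 How tested: cells in 96-well plates exposed to compound for 48 hours at five concentrations. GI50 is the concentration that inhibits growth by half.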 Calls of active or inactive are those of the source. Rule as the data show it: active = GI50 up to about 1.1 µM and inactive = higher. Where a SMILES comes first, the peptide text is derived from it. The star is where a group is joined. Boc = CC(C)(C)OC(=O)* A value given as a limit tells only on which side of the number the result lay.

Consider `C[N+]1(C)C2CC(OC(=O)C(CO)c3ccccc3)CC1C1OC12` (configuration not stated), for which the GI50 in assay [1] is > 100 µM (inactive); in assay [2] it was over 100 µM; in [3], > 100 µM (inactive); in assay [4], > 100 µM (inactive); in [5], > 100 µM (inactive); in assay [6], > 100 µM (inactive). Further, the GI50 in assay [7], in assay [8], in assay [9], in [10], in [11] and in [12] was > 100 µM (inactive) in each case. Besides, the GI50 in assay [13], in [14], in assay [15], in [16], in [17] and in [18] was > 100 µM (inactive) each time.
Turning to `COc1ccc(N2C(=O)CC(C3CC(C(C)(C)C)CCC3=O)C2=O)cc1` (configuration not stated), the GI50 was > 100 µM (inactive) in assay [1]; over 100 µM in [2]; > 100 µM (inactive) in assay [3]; > 100 µM (inactive) in assay [4]; > 100 µM (inactive) in assay [6]; > 100 µM (inactive) in assay [7]. Further, the GI50 in assay [19], in [11], in assay [12], in assay [14], in assay [15] and in assay [16] was > 100 µM (inactive) throughout. Further, the GI50 in assay [17] and in [18] was > 100 µM (inactive) in each case.
Consider `O=C(/C=C1\Nc2ccccc2N=C1NC12CC3CC(CC(C3)C1)C2)c1ccc(Br)cc1`, for which the GI50 in [1] was > 10 µM (inactive); in assay [2], over 10 µM; in assay [3], > 10 µM (inactive); in [4] it was > 10 µM (inactive); in assay [5] it was > 10 µM (inactive); in [6], > 10 µM (inactive). The GI50 in assay [7], in [8], in assay [19], in [9], in assay [10] and in [11] was > 10 µM (inactive) each time. Besides, the GI50 in assay [12], in assay [13], in assay [14], in [15], in [16] and in assay [17] was > 10 µM (inactive) in each case. The GI50 in assay [18] was > 10 µM (inactive).
On to `COc1ccc(Cn2c(=O)c(OS(=O)(=O)C(F)(F)F)c(C)c3cc4ccccc4cc32)cc1`, for which the GI50 in [1] is > 100 µM (inactive); in [2] it was over 100 µM; in [3], > 100 µM (inactive); in [4] it was > 100 µM (inactive); in assay [5] it was > 100 µM (inactive); in assay [6], > 100 µM (inactive). Moreover, the GI50 in [7] is > 100 µM (inactive); in [8], 86.1 µM (inactive); in assay [19], > 100 µM (inactive); in assay [9], > 100 µM (inactive); in [10], > 100 µM (inactive); in assay [12] it was > 100 µM (inactive). The GI50 in assay [13], in assay [14], in [15], in assay [16], in assay [17] and in assay [18] was > 100 µM (inactive) throughout.
On to `CC(C)(C)c1cc(C(=O)O)c(C(c2ccccc2)c2ccccc2C(=O)O)c(C(=O)O)c1` (configuration not stated), for which the GI50 in assay [1] was > 100 µM (inactive); in assay [2] it was over 100 µM; in [3] it was > 100 µM (inactive); in [4] it was > 100 µM (inactive); in [5], > 100 µM (inactive); in [6], > 100 µM (inactive). For the same molecule, the GI50 in [7], in assay [8], in assay [19], in assay [9], in assay [10] and in assay [12] was > 100 µM (inactive) throughout. For the same molecule, the GI50 in assay [13] is > 100 µM (inactive); in [14], 21.7 µM (inactive); in [15], 21.9 µM (inactive); in assay [16] it was > 100 µM (inactive); in [17], 21.7 µM (inactive); in [18], 11.3 µM (inactive).
For `NC1CC(=O)c2cc(Br)sc21` (configuration not stated), the GI50 is > 100 µM (inactive) in assay [1]; over 100 µM in assay [2]; > 100 µM (inactive) in assay [3]; > 100 µM (inactive) in assay [4]; > 100 µM (inactive) in [6]; > 100 µM (inactive) in [7]. The GI50 in [8], in [19], in assay [9], in assay [10], in assay [11] and in assay [12] was > 100 µM (inactive) throughout. Besides, the GI50 in assay [13], in assay [14], in assay [15], in [16], in [17] and in assay [18] was > 100 µM (inactive) in each case.
With `CC(C)NCCNC(=O)c1ccccc1Nc1c(Cl)cccc1Cl`, the GI50 in assay [1] is 11.3 µM (inactive); in assay [2] it was 13 µM; in assay [3], 11.6 µM (inactive); in assay [4], 6.95 µM (inactive); in [5], 7.24 µM (inactive); in assay [6] it was 11.5 µM (inactive). In addition, the GI50 was 8.69 µM (inactive) in assay [7]; 3.29 µM (inactive) in [19]; 12.6 µM (inactive) in assay [9]; 7.38 µM (inactive) in assay [10]; 3.81 µM (inactive) in [11]; 5.08 µM (inactive) in [12]. Besides, the GI50 is 14.8 µM (inactive) in assay [14]; 13.2 µM (inactive) in [15]; 15.3 µM (inactive) in assay [16]; 4.63 µM (inactive) in [17]; 4.65 µM (inactive) in assay [18].
Turning to `O=C(O)C1Cc2ccccc2OC1=O` (configuration not stated), the GI50 is > 100 µM (inactive) in [1]; over 100 µM in [2]; > 100 µM (inactive) in assay [3]; > 100 µM (inactive) in [4]; > 100 µM (inactive) in assay [6]; > 100 µM (inactive) in assay [7]. Besides, the GI50 in assay [8], in [19], in [9], in [10], in [11] and in [12] was > 100 µM (inactive) throughout. For the same molecule, the GI50 in assay [13], in assay [14], in assay [15], in assay [16] and in assay [18] was > 100 µM (inactive) throughout.
Consider `CC(=O)C=C1Nc2ccccc2N1`, for which the GI50 was > 100 µM (inactive) in assay [1]; over 100 µM in [2]; > 100 µM (inactive) in assay [4]; > 100 µM (inactive) in [5]; > 100 µM (inactive) in [6]; > 100 µM (inactive) in [7]. For the same molecule, the GI50 in assay [8], in assay [19], in [9], in assay [10], in assay [11] and in assay [12] was > 100 µM (inactive) in each case. Further, the GI50 in assay [13] is > 100 µM (inactive); in assay [15], > 100 µM (inactive); in assay [16], > 100 µM (inactive); in assay [17], 36.9 µM (inactive); in assay [18], > 100 µM (inactive).
With `O=C1Oc2ccccc2C(=O)/C1=C/N1C(=O)CNC1=S`, the GI50 in assay [1] was > 100 µM (inactive); in [2], over 100 µM; in assay [3], > 100 µM (inactive); in assay [4] it was > 100 µM (inactive); in assay [5], > 100 µM (inactive); in [6] it was > 100 µM (inactive). In addition, the GI50 in [7] is > 100 µM (inactive); in assay [19], 63 µM (inactive); in assay [9], > 100 µM (inactive); in assay [10], > 100 µM (inactive); in assay [11] it was > 100 µM (inactive); in assay [12], 26.9 µM (inactive). Besides, the GI50 in [13] was > 100 µM (inactive); in assay [14] it was 95.1 µM (inactive); in assay [15] it was > 100 µM (inactive); in assay [16], > 100 µM (inactive); in assay [18], > 100 µM (inactive).
`CNC(=O)CNC(=O)C(NC(=O)CNC(=O)C1CCCN1C(=O)C(C)NC(=O)C(NC(=O)OC(C)(C)C)C(C)C)C(C)C` (configuration not stated) (Boc-VAPGVG-NHMe; configuration not given here): the GI50 was > 100 µM (inactive) in assay [1]; over 100 µM in assay [2]; > 100 µM (inactive) in assay [3]; > 100 µM (inactive) in [20]; > 100 µM (inactive) in [4]; > 100 µM (inactive) in assay [5]. The GI50 in [6], in [7], in [8], in [19], in assay [9] and in assay [10] was > 100 µM (inactive) throughout. The GI50 in assay [11], in assay [13], in [14], in [15], in assay [16] and in assay [17] was > 100 µM (inactive) each time. For the same molecule, the GI50 in [18] was > 100 µM (inactive).
